Experiments:
[1] = Plasma concentration of glyceryl trinitrate after patch or spray delivery; type: in vivo, human; conditions: 0.2 mg/h patch after 20 to 30 minutes
Experimental: The concentration of glyceryl trinitrate (the typical form of NO donor derived from Nitrospray or Nitropatches) has been reported in the literature for such delivery routes to be in the order of 200 to 400 pg/ml of plasma (Sun et al., J. Clin. Pharmacol. 35:390, 1995). Based on the clinical case studies performed, it was noted that the beneficial effects of a 0.2 mg/h patch are observed after 20 to 30 minutes. This corresponds to a plasma concentration of 100 pg/ml. In respect of the application of the invention to ED therapy a preferred range of NO agent (such as GTN) is a steady state plasma concentration of about 50 to about 200 pg/ml. This range corresponds to the “window” referred to above as illustrated in FIG. 4.

L-NAME treated rats = assay: Mean arterial pressure response to vasoactive infusions in control and L-NAME treated rats; type: in vivo, rat; conditions: for shift of concentration-mean arterial pressure response curve after NO synthase blockade: L-NAME treated versus control rats
Experimental: The surgical method was based on the technique of Thompson et al (Hypertens. 20:809, 1992). […] The catheters were tunnelled subcutaneously and exteriorized at the back of the neck and sutured in place. Two days after surgery, MAP could be recorded (MacLab DAS, ADInstruments, Milford, Mass.). After connection, an equilibration period of approximately 30 minutes allowed for the determination of the steady state level of MAP before any recording began. Baseline MAP was determined from readings averaged over 5 minutes, taken from each rat at 15 minute intervals for at least 1 hour prior to the start of any experiment.
Rats were randomly assigned treatment with N^ω-nitro-L-arginine methyl ester (L-NAME) for 30 minutes (100 mg/kg, intraperitoneally) or 12 days (100 mg/kg, in drinking water) or tap water. Two days prior to the day of the experiment rats were instrumented with catheters, as described above. Following baseline measurements of MAP, rats were given a infusions of sodium nitroprusside (SNP, 0.5 to 32 ug/kg per minute dissolved in 0.9% sterile saline) with a step-wise increase in concentration every two minutes. Rats were allowed 30 minutes to recover from the SNP administration. Rats were then given infusions of glyceryl trinitrate (GTN, 0.5 to 32 ug/kg per minute dissolved in 0.9% sterile saline) with a step-wise increase in concentration every two minutes.
Throughout all of these pharmacological manipulations, MAP and HR were recorded at a sampling rate of 100 Hz and the data was stored on a disk drive for later analysis.

[2] = in vivo; cited from earlier work
[3] = test system: patients with previously diagnosed ED; assay: Clinical case studies in patients with erectile dysfunction; type: in vivo, human; conditions: 0.2 mg/h patch
Experimental: Clinical Data: For erectile dysfunction reversal with microdoses of NO General Methods. Measurements were made in a clinical erectile dysfunction (ED) laboratory in patients with previously diagnosed ED. These patients were being evaluated for the purpose of optimization of their intracavernous injection dosing. All men were assessed using the Queen's University Human Sexuality Group Protocol (Kingston, Ontario, Canada).

renal vasculature = assay: Renal interstitial hydrostatic pressure (RIHP) and mean arterial pressure in anaesthetized rats

## O=[N+]([O-])OCC(CO[N+](=O)[O-])O[N+](=O)[O-] [GTN, glyceryl trinitrate]
[1]
  plasma concentration corresponding to onset of beneficial effects: 0.1 ng/mL
L-NAME treated rats; L-NAME treated rats, concentrations that do not lower MAP in controls
  reversal of NO synthase blockade induced hypertension / excessive vasoconstriction: almost completely reversed
L-NAME treated rats
  shift of concentration-mean arterial pressure response curve after NO synthase blockade: shifted leftward
[2]
  plasma concentration reported in the literature: 0.2 to 0.4 ng/mL
[3]
  time to beneficial effects: 20 to 30 min

## CC(C)NCC(O)c1ccc(O)c(O)c1 (stereo not shown) [INE, isopropylnorepinephrine]
L-NAME treated rats
  shift of concentration-mean arterial pressure response curve after NO synthase blockade: identical both before and after nitric oxide synthase blockade

## N=C(N)NCCC[C@H](N)C(=O)O [L-Arginine]
Renal vasculature; L-NAME treated, 150-200 mg/kg per min, FIG. 6
  renal vasoconstriction as measured by RIHP changes: reversed the renal vasoconstriction

## COC(=O)[C@@H](N)CCCNC(=N)N[N+](=O)[O-] [L-NAME, N^ω nitro-L-arginine methyl ester]
L-NAME treated rats; L-NAME alone
  hypertension following maximal NO synthase blockade: 40 mmHg
Renal vasculature; administration of NO synthase blocker, FIG. 5
  change in RIHP: sharp decline in RIHP

## COc1cc2nc(N3CCN(C(=O)c4ccco4)CC3)nc(N)c2cc1OC [prazosin]
L-NAME treated rats; FIG. 9
  increased sensitivity to nitric oxide donors following treatment: does not occur

Source: US7393825B2, “Microdose therapy” (Strakan International Limited, priority 1997, dated 2008)
